# From patent publication US20030027722A1, “Influencing the activity of plant growth regulators” (priority 1998, published 2003)
# What was measured:
# apple stalk slices = test: rooting regeneration on apple stalk slices with elicitors; type: cell-based; conditions: roots, apple, 1 μM indolebutyric or indoleacetic acid, 1 or 3 days
# Experimental: The effect of the elicitors on rooting regeneration on apple stalk slices was studied. The stalk slices were incubated on medium with elicitors in combination with a sub-optimal auxin concentration (1 μM indolebutyric acid or 1 μM indoleacetic acid) which were added for 1 or 3 days to the plant tissue for testing. The increase was measured in the number of regenerated roots compared to the auxin control.
# cut flowers (carnations) = test: retarding the aging of cut flowers; type: in vivo, carnation
# Experimental: The DMF was evaporated and the remaining solid was dissolved in methanol and filtered. Diluted hydrochloric acid was added to the methanol solution. After 2 hours at room temperature the solvent was evaporated and G-A-A was obtained.
# apple = test: roots per tissue fragment in apple; type: cell-based
# From the text: An apple IAA may induce a maximum of 3.5 roots per tissue fragment, while IAA-N-BSA induces a maximum of 8 roots per tissue fragment. Very recalcitrant trees like summer oak and cork oak can be rooted to a much higher percentage than with any of the conventionally applied rooting powders. The compounds described in EXAMPLE 3 and together with elicitors in Table 1 show similar effects.
# apple and rose [1] = test: rooting in apple and rose, stem-disk method; type: cell-based; conditions: rooting powder, stem-disks
# Experimental: The auxin compounds were tested with respect to rooting in apple and rose
# b) Tests are performed by the stem-disk method as published by Van der Krieken et al., Plant Cell Reports (1993), vol. 12, 203-206, in which the number of roots of a large number of stem-disks cut from a particular plant are counted and treated with rooting powder containing in this case the compounds described.
# rose = test: rooting powder comparison, rooting and development of scions, rose; type: in vivo; parameters: key: 1: The compounds with the best relative overall effect on rooting and development were placed in category I; categories which ranged from 1 to 6
# From the text: (§1) d) In Table 2 standard indol butyric acid (IBA), which is the active component in most currently used rooting powders, is compared with indol hexanolic acid (IHA) and two BSA adducts, both—coupled, namely IBA and indole acetic acid (BSA-N-IAA). The effect on rooting and the plant development (stem growth, outgrowth of new shoots, synchronicity of growth of a population of plants) were inter alia factors determining the place in the categories which ranged from 1 to 6. The compounds with the best relative overall effect on rooting and development were placed in category I. Rooting and subsequent development of scions for different types of herbaceous and woody plants differs largely for those types of plants. A rose cultivar, “enermus stur cinq”, was used as an example of a recalcitrant woody plant. The chrysanthemum species “regan” is an example of an easy to root herbaceous plant.
# chrysanthemum = test: rooting powder comparison, rooting and development of scions, chrysanthemum; type: in vivo; parameters: key: 1: The compounds with the best relative overall effect on rooting and development were placed in category I; categories which ranged from 1 to 6
# From the text: as §1
# tissue explants of rose = test: shoot formation on tissue explants of rose; type: cell-based
# Experimental: It was also observed that tissue explants of rose when treated with IBA (normal addition) or IHA, respectively, formed about 50 times more shoots (2 shoots versus 100 per 20 tissue explants) in the latter case.
# In the studies for new applications of PGRs and/or elicitors, which were performed within the framework of the present invention, several new and unexpected observations were made. […] Furthermore, the inventors established that elicitors do cause a statistically significant growth retardation of all tissues, as can be illustrated for rose shoots. This effect was enhanced by PGR(s), in casu antigibberelins, i.e. paclobutrasol. […] Finally the observation was made that when tissue explants of rose were treated with respectively IBA (normal addition) or IHA, in the last case about 50 times more shoots were formed (2 shoots versus 100 per 20 tissue explants).
# apple and rose [2] = test: root induction in apple and rose; type: in vivo
# From the text: It is also possible to offer a hormone precursor, which is converted into an active hormone by metabolic processes. Indole-3-hexanoic acid (I-H-A) is converted by two beta-oxidation steps (the enzymes therefor are present in the plant) into the auxin indole-3-acetic acid (I-A-A). I-H-A is thus a special form of a slow-release source.
# carnation = test: rooting powder comparison, rooting and development of scions, carnation; type: in vivo; parameters: key: 1: The compounds with the best relative overall effect on rooting and development were placed in category I; categories which ranged from 1 to 6
# From the text: as §1
# [3] = tested on: rose, chrysanthemum, carnation; test: rooting powder comparison, average over species; type: in vivo; conditions: for average category: average over the species tested; for overall assessment of rooting powders from Table 2: in vivo
# From the text: as §1
# Brassica napens = test: microspore embryogenesis; type: cell-based; conditions: in combination with colchicine
# [4] = tested on: Carnations (cultivar Miledy); test: senescence of carnations after simulated dry transport; type: in vivo, carnation
# Experimental: The flowers were treated for one day with silver thiosulfate (STS), t-BOC-AOA, or with water in the case of controls. The flowers were then subjected to simulated dry transport conditions: 4 days at 8° C. and a relative humidity of 75%. The bottom 5 cm of each stem was then removed, and the flowers were incubated on water for 2 hours at 8° C. and a relative humidity of 75%. The flowers were then transferred to a climate room with standard flower development conditions (20° C., relative humidity of 75%, light level of 1000 lux). Senescence of the flowers was then determined every day. If flowers started wilting (mostly at the edges of the petals) or changed color they were no longer in the category of “flowers in a perfect stage” (see Table 3).
# plantroots = test: root induction by chemically modified auxins on various plants; conditions: in vivo
# From the text: Attaching IAA to BSA is done to increase the amount of IAA administered to the roots. Up to 32 IAA molecules can be attached to BSA in 2 different ways. Either as N-conjugate of IAA or as C-conjugate. Upon addition of the IAA-BSA to plantroots, the IAA is split off in the root and leads to the availability of IAA during a longer period allowing the root tissue to become sensitive.
# [5] = rose enermus stur cinq (recalcitrant woody plant)
# [6] = chrys. regan (easy to root herbaceous plant)
# [7] = 7 d after the start of the experiment
# [8] = 8 d after the start of the experiment
# [9] = 9 d after the start of the experiment
# [10] = 10 d after the start of the experiment
# [11] = 11 d after the start of the experiment
# [12] = 12 d after the start of the experiment
# [13] = 13 d after the start of the experiment
# [14] = 14 d after the start of the experiment
# [15] = 15 d after the start of the experiment
# [16] = 16 d after the start of the experiment
# [17] = 17 d after the start of the experiment
# [18] = 18 d after the start of the experiment
# [19] = 19 d after the start of the experiment
# [20] = 20 d after the start of the experiment
# [21] = 21 d after the start of the experiment
# [22] = 22 d after the start of the experiment
compound,measurement,setting,value
CC(=O)Nc1ccc(O)cc1 [4-acetamidophenol],increased regeneration in relation to control (auxin alone),apple stalk slices; elicitor 1 μM,75%
CC(C)(NC(=O)CCC(=O)NC(C)(C)C(=O)O)C(=O)O [A-S-A],"activity in retarding the aging of the flowers, times relative to non-modified AIB","cut flowers (carnations); in water, concentration 5×10^−5 to 10^−3 M, carnations",50
"O=C(O)Cc1c[nH]c2ccccc12 [IAA, indole-3-acetic acid, reference compound]",maximum of roots per tissue fragment,apple,3.5 roots per tissue fragment
CC(C)(NC(=O)CCCc1c[nH]c2ccccc12)C(=O)O [IBA-AIB],rooting compared with standard hormone treatment / IBA alone,apple and rose [1],more active than the standard hormone treatment
"O=C(O)CCCCCc1c[nH]c2ccccc12 [IHA, Indole-3-hexanoic acid]",category of relative overall effect on rooting and plant development,rose; [5],1
same,category of relative overall effect on rooting and plant development,rose; rose n. brier,1
same,category of relative overall effect on rooting and plant development,chrysanthemum; [6],2
same,category of relative overall effect on rooting and plant development,chrysanthemum; chrys. snowdon,1
same,shoots formed,tissue explants of rose,100 shoots per 20 tissue explants
same,times more shoots than with IBA,tissue explants of rose,about 50
same,activity in root induction relative to I-A-A,apple and rose [2],thirty times more active than I-A-A
same,category of relative overall effect on rooting and plant development,carnation; carnation m. brilj.,1
same,category of relative overall effect on rooting and plant development,carnation; carnation tempo,2
same,average category,[3],1.33
same,overall assessment of rooting powders from Table 2,[3],very generally applicable and very effective
C=CC(C)(C)OC[C@H]1O[C@H](O[C@@H]2C3=C([C@H](C)COC(C)=O)C[C@H](O)[C@]3(C)/C=C3/[C@@H](COC)CC[C@H]3[C@@H](C)[C@H]2O)[C@H](O)[C@@H](OC(C)=O)[C@@H]1O [fusicocine],increased regeneration in relation to control (auxin alone),apple stalk slices; elicitor 0.01 μM,75%
CC/C=C\C[C@H]1C(=O)CC[C@@H]1CC(=O)O [jasmonic acid],increased regeneration in relation to control (auxin alone),apple stalk slices; elicitor 0.01 μM,210%
CCCCCCCCC(=O)O [nonanoic acid],increase in microspore embryogenesis,Brassica napens,125%
same,increased regeneration in relation to control (auxin alone),apple stalk slices; elicitor 0.1-1 μM,300%
"CC(C)(C)OC(=O)NOCC(=O)O [t-Boc-AOA, tertiair-butyloxycarbonylaminooxyacetic acid]",Percentage of flowers in the perfect stage after treatment,[4]; [7],100%
same,Percentage of flowers in the perfect stage after treatment,[4]; [8],100%
same,Percentage of flowers in the perfect stage after treatment,[4]; [9],100%
same,Percentage of flowers in the perfect stage after treatment,[4]; [10],100%
same,Percentage of flowers in the perfect stage after treatment,[4]; [11],100%
same,Percentage of flowers in the perfect stage after treatment,[4]; [12],100%
same,Percentage of flowers in the perfect stage after treatment,[4]; [13],100%
same,Percentage of flowers in the perfect stage after treatment,[4]; [14],100%
same,Percentage of flowers in the perfect stage after treatment,[4]; [15],100%
same,Percentage of flowers in the perfect stage after treatment,[4]; [16],100%
same,Percentage of flowers in the perfect stage after treatment,[4]; [17],85%
same,Percentage of flowers in the perfect stage after treatment,[4]; [18],75%
same,Percentage of flowers in the perfect stage after treatment,[4]; [19],53%
same,Percentage of flowers in the perfect stage after treatment,[4]; [20],30%
same,Percentage of flowers in the perfect stage after treatment,[4]; [21],4%
same,Percentage of flowers in the perfect stage after treatment,[4]; [22],0%
same,"delaying flower senescence, compared with STS",[4]; summary of Table 3,generally comparable to or superior to STS
O=C(OC[C@H]1O[C@@H](OC(=O)c2cc(O)c(O)c(OC(=O)c3cc(O)c(O)c(O)c3)c2)[C@H](OC(=O)c2cc(O)c(O)c(OC(=O)c3cc(O)c(O)c(O)c3)c2)[C@@H](OC(=O)c2cc(O)c(O)c(OC(=O)c3cc(O)c(O)c(O)c3)c2)[C@@H]1OC(=O)c1cc(O)c(O)c(OC(=O)c2cc(O)c(O)c(O)c2)c1)c1cc(O)c(O)c(OC(=O)c2cc(O)c(O)c(O)c2)c1 [tannic acid],increased regeneration in relation to control (auxin alone),apple stalk slices; elicitor 1 μM,225%
IAA-C-BSA: indoleacetic acid-C-conjugate with BSA,"effectiveness in root induction, comparison",plantroots,"somewhat less effective in root induction as IAA-N-BSA, but still better than IAA alone"
IAA-N-BSA: indoleacetic acid-N-conjugate with BSA,category of relative overall effect on rooting and plant development,rose; [5],1
same,category of relative overall effect on rooting and plant development,rose; rose n. brier,3
same,category of relative overall effect on rooting and plant development,chrysanthemum; [6],1
same,category of relative overall effect on rooting and plant development,chrysanthemum; chrys. snowdon,2
same,category of relative overall effect on rooting and plant development,carnation; carnation m. brilj.,1
same,category of relative overall effect on rooting and plant development,carnation; carnation tempo,3
same,average category,[3],1.8
same,overall assessment of rooting powders from Table 2,[3],especially suited for recalcitrant plants
same,maximum of roots per tissue fragment,apple,8 roots per tissue fragment
IBA-N-BSA: N-conjugate with BSA made with IBA instead of IAA,category of relative overall effect on rooting and plant development,rose; [5],2
same,category of relative overall effect on rooting and plant development,rose; rose n. brier,1
same,category of relative overall effect on rooting and plant development,chrysanthemum; [6],4
same,category of relative overall effect on rooting and plant development,chrysanthemum; chrys. snowdon,1
same,category of relative overall effect on rooting and plant development,carnation; carnation m. brilj.,1
same,category of relative overall effect on rooting and plant development,carnation; carnation tempo,3
same,average category,[3],2.0
glucose-acetate-amino-oxyacetic acid [G-A-A],effect against aging,cut flowers (carnations); carnation,effective means against aging
"indole butyric acid [IBA, reference compound]",category of relative overall effect on rooting and plant development,rose; [5],3
same,category of relative overall effect on rooting and plant development,rose; rose n. brier,1
same,category of relative overall effect on rooting and plant development,chrysanthemum; [6],4
same,category of relative overall effect on rooting and plant development,chrysanthemum; chrys. snowdon,1
same,shoots formed,tissue explants of rose,2 shoots per 20 tissue explants
same,average category,[3],2.25
"silver thiosulfate [STS, reference compound]",Percentage of flowers in the perfect stage after treatment,[4]; [7],100%
same,Percentage of flowers in the perfect stage after treatment,[4]; [8],100%
same,Percentage of flowers in the perfect stage after treatment,[4]; [9],100%
same,Percentage of flowers in the perfect stage after treatment,[4]; [10],100%
same,Percentage of flowers in the perfect stage after treatment,[4]; [11],100%
same,Percentage of flowers in the perfect stage after treatment,[4]; [12],100%
same,Percentage of flowers in the perfect stage after treatment,[4]; [13],100%
same,Percentage of flowers in the perfect stage after treatment,[4]; [14],100%
same,Percentage of flowers in the perfect stage after treatment,[4]; [15],100%
same,Percentage of flowers in the perfect stage after treatment,[4]; [16],100%
same,Percentage of flowers in the perfect stage after treatment,[4]; [17],88%
same,Percentage of flowers in the perfect stage after treatment,[4]; [18],65%
same,Percentage of flowers in the perfect stage after treatment,[4]; [19],8%
same,Percentage of flowers in the perfect stage after treatment,[4]; [20],0%
same,Percentage of flowers in the perfect stage after treatment,[4]; [21],0%
same,Percentage of flowers in the perfect stage after treatment,[4]; [22],0%
